# According to patent publication US20230137932A1, “CYANO-PYRIMIDINE INHIBITORS OF EGFR/HER2” (Dana-Farber Cancer Institute, Inc., priority 2020, published 2023):
# Like-named read-outs stand apart in the source and are kept apart here.
# How the values were obtained:
# Ba/F3 parental = experiment: Ba/F3 cell viability (MTS), parental cells; assay type: cell-based, murine; details: Mus musculus, BaF3, Table 3, 72 hours
# Experimental: (§1) The IC50 values of the compounds provided herein were measured against kinases in Ba/F3 cells.
# (§2) For assays with Ba/F3 cells, 3000 cells were seeded for per well in 96-well plates and were exposed to indicated compounds with a concentration of 3.3 to 10 μM for 72 hours.
# VC = VC (Homo sapiens, UniProt P04626, DELINS776-776VC, cells depend on it); experiment: Ba/F3 cell viability (MTS), VC; assay type: cell-based; details: Table 5
# Experimental: as §1, §2
# exon19 = exon19 (Homo sapiens, UniProt P00533, cells depend on it, form not given); experiment: Ba/F3 cell viability (MTS), exon19; assay type: cell-based; details: Table 5
# Chain of exon19 (P00533 with tags, fused parts or gaps DEL746-750): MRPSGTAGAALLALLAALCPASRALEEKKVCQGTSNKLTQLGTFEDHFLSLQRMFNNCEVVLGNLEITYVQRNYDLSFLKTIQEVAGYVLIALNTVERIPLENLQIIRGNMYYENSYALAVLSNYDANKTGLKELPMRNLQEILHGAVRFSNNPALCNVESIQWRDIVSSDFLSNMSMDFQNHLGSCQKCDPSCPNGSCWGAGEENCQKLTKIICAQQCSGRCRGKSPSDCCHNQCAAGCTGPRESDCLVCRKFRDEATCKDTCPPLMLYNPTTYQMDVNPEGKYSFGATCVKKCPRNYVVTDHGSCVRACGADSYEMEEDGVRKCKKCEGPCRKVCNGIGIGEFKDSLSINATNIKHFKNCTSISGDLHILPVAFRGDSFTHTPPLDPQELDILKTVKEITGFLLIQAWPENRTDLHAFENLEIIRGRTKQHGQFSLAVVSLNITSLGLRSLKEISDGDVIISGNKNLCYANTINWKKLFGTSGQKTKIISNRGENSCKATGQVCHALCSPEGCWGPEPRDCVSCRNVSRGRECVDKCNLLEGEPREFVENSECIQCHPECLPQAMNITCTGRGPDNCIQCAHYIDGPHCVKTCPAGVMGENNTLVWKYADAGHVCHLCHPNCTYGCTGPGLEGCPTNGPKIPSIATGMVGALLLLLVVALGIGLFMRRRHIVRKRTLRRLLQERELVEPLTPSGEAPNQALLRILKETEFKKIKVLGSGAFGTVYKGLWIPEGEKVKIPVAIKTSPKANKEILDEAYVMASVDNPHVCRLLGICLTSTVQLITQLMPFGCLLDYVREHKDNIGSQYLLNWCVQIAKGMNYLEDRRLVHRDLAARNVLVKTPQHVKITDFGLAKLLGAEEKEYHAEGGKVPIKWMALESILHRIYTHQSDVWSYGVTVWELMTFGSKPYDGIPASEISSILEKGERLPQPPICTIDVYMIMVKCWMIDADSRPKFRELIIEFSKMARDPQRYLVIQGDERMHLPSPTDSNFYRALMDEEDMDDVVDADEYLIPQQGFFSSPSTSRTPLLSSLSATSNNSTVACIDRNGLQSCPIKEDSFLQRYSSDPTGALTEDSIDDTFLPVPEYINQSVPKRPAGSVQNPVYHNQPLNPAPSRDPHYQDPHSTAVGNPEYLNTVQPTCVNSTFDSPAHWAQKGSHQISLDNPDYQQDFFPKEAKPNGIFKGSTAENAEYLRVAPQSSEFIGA
# H = H (Homo sapiens, UniProt P00533, cells depend on it, form not given); experiment: Ba/F3 cell viability (MTS), H; assay type: cell-based; details: Table 5
# Chain of H (P00533 with tags, fused parts or gaps DUP773-773): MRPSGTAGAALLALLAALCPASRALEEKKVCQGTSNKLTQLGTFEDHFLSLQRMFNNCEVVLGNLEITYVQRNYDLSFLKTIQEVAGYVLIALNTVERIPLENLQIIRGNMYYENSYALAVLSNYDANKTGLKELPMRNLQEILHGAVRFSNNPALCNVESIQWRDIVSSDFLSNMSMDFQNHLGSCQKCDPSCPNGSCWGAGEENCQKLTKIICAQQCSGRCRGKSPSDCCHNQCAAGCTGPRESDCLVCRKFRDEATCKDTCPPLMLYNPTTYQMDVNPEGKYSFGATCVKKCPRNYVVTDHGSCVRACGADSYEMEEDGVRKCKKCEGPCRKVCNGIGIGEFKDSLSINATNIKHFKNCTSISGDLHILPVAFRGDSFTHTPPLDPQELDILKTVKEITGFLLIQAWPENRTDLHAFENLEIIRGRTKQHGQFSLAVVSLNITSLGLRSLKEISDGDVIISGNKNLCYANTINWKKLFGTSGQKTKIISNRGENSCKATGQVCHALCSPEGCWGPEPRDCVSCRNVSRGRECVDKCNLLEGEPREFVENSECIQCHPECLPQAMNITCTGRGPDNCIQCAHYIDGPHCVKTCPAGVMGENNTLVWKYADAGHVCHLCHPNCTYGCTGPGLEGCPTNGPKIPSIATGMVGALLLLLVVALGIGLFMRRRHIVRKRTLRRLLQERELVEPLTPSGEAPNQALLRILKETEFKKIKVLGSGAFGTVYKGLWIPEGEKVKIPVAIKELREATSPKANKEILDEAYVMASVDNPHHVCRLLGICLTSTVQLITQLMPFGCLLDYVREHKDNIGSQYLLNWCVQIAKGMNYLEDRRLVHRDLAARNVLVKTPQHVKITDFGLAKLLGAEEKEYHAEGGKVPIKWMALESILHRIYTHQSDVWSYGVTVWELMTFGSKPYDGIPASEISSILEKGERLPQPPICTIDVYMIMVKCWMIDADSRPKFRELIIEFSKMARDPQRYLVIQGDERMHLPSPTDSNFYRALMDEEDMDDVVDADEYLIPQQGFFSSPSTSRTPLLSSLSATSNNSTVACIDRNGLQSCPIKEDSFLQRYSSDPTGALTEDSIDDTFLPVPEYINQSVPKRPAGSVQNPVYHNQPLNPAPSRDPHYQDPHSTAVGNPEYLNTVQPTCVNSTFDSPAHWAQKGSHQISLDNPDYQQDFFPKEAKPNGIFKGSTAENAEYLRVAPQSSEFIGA
# WLV = WLV (Homo sapiens, UniProt P04626, DELINS774-774WLV, cells depend on it); experiment: Ba/F3 cell viability (MTS), WLV; assay type: cell-based; details: Table 5
# Experimental: as §1, §2
# EGFR SVD = molecular target: T1, EGFR SVD (Homo sapiens, UniProt P00533, INS770SVD); experiment: Ba/F3 cell viability (MTS), EGFR SVD; assay type: cell-based; details: Ba/F3 cells, 72 hours
# T1 construct: expressed in transfected cells; host or cells: Ba/F3 cells
# T1 sequence (P00533 with tags, fused parts or gaps INS770SVD): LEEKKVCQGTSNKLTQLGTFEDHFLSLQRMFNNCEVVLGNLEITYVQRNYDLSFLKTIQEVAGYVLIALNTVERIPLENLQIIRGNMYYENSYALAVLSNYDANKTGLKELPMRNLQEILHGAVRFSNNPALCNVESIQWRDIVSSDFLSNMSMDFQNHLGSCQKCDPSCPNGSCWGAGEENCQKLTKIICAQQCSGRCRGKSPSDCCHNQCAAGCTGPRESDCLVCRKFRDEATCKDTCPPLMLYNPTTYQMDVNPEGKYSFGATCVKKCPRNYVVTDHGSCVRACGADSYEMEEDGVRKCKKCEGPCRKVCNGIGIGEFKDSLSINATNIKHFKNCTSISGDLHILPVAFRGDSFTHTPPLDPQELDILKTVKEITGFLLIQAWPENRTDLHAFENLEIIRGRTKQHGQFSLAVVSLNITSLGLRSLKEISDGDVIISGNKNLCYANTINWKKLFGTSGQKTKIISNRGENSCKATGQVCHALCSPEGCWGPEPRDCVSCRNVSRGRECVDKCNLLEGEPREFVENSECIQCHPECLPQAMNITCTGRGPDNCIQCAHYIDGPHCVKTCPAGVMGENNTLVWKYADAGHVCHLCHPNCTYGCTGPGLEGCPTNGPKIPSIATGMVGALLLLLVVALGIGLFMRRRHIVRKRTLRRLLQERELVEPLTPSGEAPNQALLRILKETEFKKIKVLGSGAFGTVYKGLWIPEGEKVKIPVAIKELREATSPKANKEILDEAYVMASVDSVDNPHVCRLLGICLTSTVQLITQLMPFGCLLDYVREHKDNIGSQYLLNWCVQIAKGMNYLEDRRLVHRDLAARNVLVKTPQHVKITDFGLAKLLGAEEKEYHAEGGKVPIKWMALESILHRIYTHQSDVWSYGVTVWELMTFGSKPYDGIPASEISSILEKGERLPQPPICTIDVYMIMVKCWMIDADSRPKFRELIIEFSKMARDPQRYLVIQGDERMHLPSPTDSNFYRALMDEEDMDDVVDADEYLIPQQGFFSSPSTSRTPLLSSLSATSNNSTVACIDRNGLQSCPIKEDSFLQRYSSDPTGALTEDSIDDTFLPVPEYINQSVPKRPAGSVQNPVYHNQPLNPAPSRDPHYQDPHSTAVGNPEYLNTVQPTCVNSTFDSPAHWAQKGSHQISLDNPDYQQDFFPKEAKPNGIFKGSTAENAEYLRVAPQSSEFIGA
# Experimental: as §1, §2
# EGFR ASV = molecular target: T2, EGFR ASV (Homo sapiens, UniProt P00533, INS769ASV); experiment: Ba/F3 cell viability (MTS), EGFR ASV; assay type: cell-based; details: Ba/F3 cells, 72 hours
# T2 construct: expressed in transfected cells; host or cells: Ba/F3 cells
# T2 sequence (P00533 with tags, fused parts or gaps INS769ASV): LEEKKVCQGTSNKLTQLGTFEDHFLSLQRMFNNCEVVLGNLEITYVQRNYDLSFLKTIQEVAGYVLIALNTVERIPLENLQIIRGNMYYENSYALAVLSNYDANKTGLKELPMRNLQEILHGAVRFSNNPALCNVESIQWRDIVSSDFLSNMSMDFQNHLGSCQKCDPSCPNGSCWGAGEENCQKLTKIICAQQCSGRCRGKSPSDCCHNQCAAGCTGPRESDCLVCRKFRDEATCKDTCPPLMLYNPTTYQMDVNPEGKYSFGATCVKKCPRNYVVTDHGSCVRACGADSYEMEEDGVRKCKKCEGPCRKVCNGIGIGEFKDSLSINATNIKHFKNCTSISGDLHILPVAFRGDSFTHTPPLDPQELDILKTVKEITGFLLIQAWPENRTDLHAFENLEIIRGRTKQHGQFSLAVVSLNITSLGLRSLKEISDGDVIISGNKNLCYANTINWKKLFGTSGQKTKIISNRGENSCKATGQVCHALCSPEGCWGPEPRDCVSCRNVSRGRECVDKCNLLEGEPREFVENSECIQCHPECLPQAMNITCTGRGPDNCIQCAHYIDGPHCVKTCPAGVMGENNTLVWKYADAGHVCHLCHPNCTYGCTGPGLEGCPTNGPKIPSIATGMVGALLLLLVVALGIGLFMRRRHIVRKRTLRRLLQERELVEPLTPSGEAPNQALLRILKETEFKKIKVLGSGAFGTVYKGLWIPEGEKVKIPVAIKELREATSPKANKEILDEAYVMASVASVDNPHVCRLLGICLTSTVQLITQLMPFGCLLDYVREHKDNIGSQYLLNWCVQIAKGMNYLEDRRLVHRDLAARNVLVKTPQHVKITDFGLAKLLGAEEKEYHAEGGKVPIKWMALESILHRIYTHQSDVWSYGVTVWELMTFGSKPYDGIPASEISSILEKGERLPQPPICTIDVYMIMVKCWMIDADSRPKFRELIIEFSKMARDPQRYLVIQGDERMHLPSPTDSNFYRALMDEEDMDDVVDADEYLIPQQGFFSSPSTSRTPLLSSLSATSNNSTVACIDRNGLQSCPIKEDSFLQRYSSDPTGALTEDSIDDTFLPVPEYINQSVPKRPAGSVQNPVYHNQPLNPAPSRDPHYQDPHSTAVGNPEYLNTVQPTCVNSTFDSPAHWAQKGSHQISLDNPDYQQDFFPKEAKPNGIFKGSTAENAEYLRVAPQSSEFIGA
# Experimental: as §1, §2
SMILES,IC50 (Ba/F3 parental),further results
C=CC(=O)Nc1cc(Nc2ncc(C#N)c(NC34CC(CN(C)C)(C3)C4)n2)c(OC)cc1N1CCOCC1 [Compound 031],8050 nM,–
C=CC(=O)Nc1cc(Nc2ncc(C#N)c(Nc3ccc(Oc4ccn5ccnc5c4)c(C)c3)n2)c(OC)cc1N(C)C [Compound 029],8720 nM,–
C=CC(=O)Nc1cc(Nc2ncc(C#N)c(Nc3ccc(Oc4ccn5ccnc5c4)c(C)c3)n2)c(OC)cc1N(C)CCN(C)C [Compound 022],–,GI50 (VC): 9.56 nM; GI50 (exon19): 0.948 nM; GI50 (H): 28.5 nM; GI50 (WLV): 61.3 nM
"C=CC(=O)Nc1cc(Nc2ncc(C3CC3)c(NC34CC(C3)C4)n2)c(OC)cc1N(C)CCN(C)C [Compound 019, N-(5-((4-(bicyclo[1.1.1]pentan-1-ylamino)-5-cyclopropylpyrimidin-2-yl)amino)-2-((2-(dimethylamino)ethyl)(methyl)amino)-4-methoxyphenyl)acrylamide]",4250 nM,–
"C=CC(=O)Nc1cc(Nc2ncc(C#N)c(Nc3cccc(C)c3)n2)c(OC)cc1N(C)CCN(C)C [Compound 014, N-(5-((5-cyano-4-(m-tolylamino)pyrimidin-2-yl)amino)-2-((2-(dimethyl-amino)ethyl)(methyl)amino)-4-methoxyphenyl)acrylamide]",7380 nM,–
"C=CC(=O)Nc1cc(Nc2ncc(C#N)c(NC34CC(C(F)F)(C3)C4)n2)c(OC)cc1N(C)CCN(C)C [Compound 015, N-(5-(5-cyano-4-(3-(difluoromethyl)bicycle[1.1.1]pentan-1-ylamino)-pyrimidin-2-ylamino)-2-((2-(dimethylamino)ethyl)(methyl)amino)-4-methoxyphenyl)-acrylamide]",6260 nM,–
C=CC(=O)Nc1cc(Nc2ncc(C#N)c(Nc3ccc(Oc4ccn5ccnc5c4)c(C)c3)n2)c(OC)cc1N1CC(N(C)C)C1 [Compound 030],9940 nM,–
C=CC(=O)Nc1cc(Nc2ncc(C#N)c(NC3CCC3)n2)c(OC)cc1N(C)CCN(C)C [Compound 020],5930 nM,–
"CCC(=O)Nc1cc(Nc2ncc(C#N)c(NC34CC(C3)C4)n2)c(OC)cc1N(C)CCN(C)C [Compound 028, N-(5-((4-(bicyclo[1.1.1]pentan-1-ylamino)-5-cyanopyrimidin-2-yl)amino)-2-((2-(dimethylamino)ethyl)(methyl)amino)-4-methoxyphenyl)propionamide]",10500 nM,–
C=CC(=O)Nc1cc(Nc2nc(Nc3ccc(Oc4ccn5ccnc5c4)c(C)c3)ncc2C#N)c(OC)cc1N(C)CCN(C)C [Compound 027],–,GI50 (VC): 317 nM; GI50 (exon19): 44.7 nM; GI50 (H): 444 nM; GI50 (WLV): 461 nM
"C=CC(=O)Nc1cc(Nc2ncc(C#N)c(NC3C(C)C4CCC3C4(C)C)n2)c(OC)cc1N(C)CCN(C)C (stereo not shown) [Compound 016, N-(5-((5-cyano-4-((3,7,7-trimethylbicyclo[2.2.1]heptan-2-yl)amino)-pyrimidin-2-yl)amino)-2-((2-(dimethylamino)ethyl)(methyl)amino)-4-methoxyphenyl)-acrylamide]",4340 nM,–
"C=CC(=O)Nc1cc(Nc2nccc(NC34CC(C3)C4)n2)c(OC)cc1N(C)CCN(C)C [Compound 017, N-(5-((4-(bicyclo[1.1.1]pentan-1-ylamino)pyrimidin-2-yl)amino)-2-((2-(dimethylamino)ethyl)(methyl)amino)-4-methoxyphenyl)acrylamide]",2300 nM,–
"C=CC(=O)Nc1cc(Nc2ncc(C#N)c(NC34CC(C3)C4)n2)c(OC)cc1N(C)CCN(C)C [Compound 013, N-(5-((4-(bicyclo[1.1.1]pentan-1-ylamino)-5-cyanopyrimidin-2-yl)amino)-2-((2-(dimethylamino)ethyl)(methyl)amino)-4-methoxyphenyl)acrylamide]",4580 nM,"IC50 (EGFR SVD; Table 2, read-out: Ba/F3 IC50 SVD): 6.1 nM; IC50 (EGFR SVD; Table 4, read-out: EGFR Ba/F3 SVD): 44.7 nM; IC50 (EGFR ASV; Table 2, read-out: Ba/F3 IC50 ASV): 5.11 nM; IC50 (EGFR ASV; Table 4, read-out: EGFR Ba/F3 ASV): 19.3 nM"
"C=CC(=O)Nc1cc(Nc2ncc(OC)c(NC34CC(C3)C4)n2)c(OC)cc1N(C)CCN(C)C [Compound 018, N-(5-((4-(bicyclo[1.1.1]pentan-1-ylamino)-5-methoxypyrimidin-2-yl)amino)-2-((2-(dimethylamino)ethyl)(methyl)amino)-4-methoxyphenyl)acrylamide]",9220 nM,–
"C=CC(=O)Nc1cc(Nc2ncc(C#N)c(N3CCC3)n2)c(OC)cc1N(C)CCN(C)C [Compound 021, N-(5-(4-(azetidin-1-yl)-5-cyanopyrimidin-2-ylamino)-2-((2-(dimethyl-amino)ethyl)(methyl)amino)-4-methoxyphenyl)acrylamide]",6040 nM,–
